Patent publication US20070123465A1, “Oligomeric peptides and their use for the treatment of hiv infections” (IPF PHARMACEUTICALS GMBH, priority 2004, published 2007)
pIC50: −log10 of the molar value. Bridge positions count the residues as written; N and C are the ends. Square brackets hold non-standard residues; d marks the D form. Peptide text beside a SMILES is read from it. I, II: the chains in the order shown. dTic = O=C(O)[C@H]1Cc2ccccc2CN1; NMeL = CN[C@@H](CC(C)C)C(=O)O

Test system: HIV-1 NL4-3
Format: cell-based
Details: X4-tropic HIV-1 NL4-3, P4-CCR5 cells
Text: P4-CCR5 indicator cells (Charneau et al., 1994; Journal of Molecular Biology 241, 651-662) expressing the primary CD4 receptor and both major HIV-1 entry cofactors CXCR4 and CCR5, were used to evaluate whether the oligomeric peptides according to the invention are potent inhibitors of HIV-1 infection. These cells contain the β-galactosidase reporter gene under the control of the HIV-1 promoter. Thus, activation of the β-galactosidase reporter gene allows to measure the efficiency of HIV-1 infection and thus to quantitate the potency of HIV-1 inhibitors (Detheux M. et al., 2000; Journal of Experimental Medicine 192, 1501-1508; Muinch et al., 2002; Antimicrobial Agents and Chemotherapy 46, 982-990).
To perform a typical infection assay, P4-CCR5 cells (Charneau et al., 1994; Journal of Molecular Biology 241, 651-662; Charneau et al., Virology. 1994 205, 247-53) were kept in RPMI 1640 medium supplemented with 10 volume % FCS. This cell line coexpresses CD4 and both HIV-1 coreceptors CCR5 and CXCR4 and contains the β-galactosidase gene under the control of the HIV-1 promoter. Virus stocks were generated by the calcium coprecipitation method as described (Detheux et al., 3 Exp Med. 192:1501-8; 2000), and the p24 antigen levels were quantitated with an HIV p24 ELISA kit obtained through the NIH AIDS Reagent Program. Cells were seeded in flat-bottomed 96-well dishes, cultured overnight, and incubated with the different doses of peptide for 2 h before infection with virus containing 1 ng of p24 antigen in a total volume of […] of medium. After overnight incubation, cells were washed twice and cultivated in fresh culture medium without inhibitory peptide. Three days after infection the cells were lysed, and infectivity was quantitated using the Galacto-Light Plus™ chemiluminescence reporter assay kit (Tropix, Bedford, Mass.) as recommended by the manufacturer. All infections were performed in quintuplicate.
Below, the IC50 values of peptides of the invention obtained from the described infection assay are provided.

Compound: CC[C@H](C)[C@H](NC(=O)[C@H](C)NC(=O)[C@H](CCC(=O)O)NC(=O)[C@@H](N)CC(C)C)C(=O)N1CCC[C@H]1C(=O)N[C@@H](CCSC)C(=O)N[C@@H](CSSC[C@H](NC(=O)[C@H](CCSC)NC(=O)[C@@H]1CCCN1C(=O)[C@@H](NC(=O)[C@H](C)NC(=O)[C@H](CCC(=O)O)NC(=O)[C@@H](N)CC(C)C)[C@@H](C)CC)C(=O)N[C@H](C(=O)N1CCC[C@H]1C(=O)N1CCC[C@H]1C(=O)N[C@@H](CCC(=O)O)C(=O)N[C@@H](Cc1ccccc1)C(=O)N[C@@H](CC(C)C)C(=O)N[C@@H](Cc1ccccc1)C(=O)NCC(=O)N[C@@H](CCCCN)C(=O)N1CCC[C@H]1C(=O)N[C@@H](Cc1ccccc1)C(=O)N[C@H](C(=O)N[C@@H](Cc1ccccc1)C(=O)O)C(C)C)[C@@H](C)CC)C(=O)N[C@H](C(=O)N1CCC[C@H]1C(=O)N1CCC[C@H]1C(=O)N[C@@H](CCC(=O)O)C(=O)N[C@@H](Cc1ccccc1)C(=O)N[C@@H](CC(C)C)C(=O)N[C@@H](Cc1ccccc1)C(=O)NCC(=O)N[C@@H](CCCCN)C(=O)N1CCC[C@H]1C(=O)N[C@@H](Cc1ccccc1)C(=O)N[C@H](C(=O)N[C@@H](Cc1ccccc1)C(=O)O)C(C)C)[C@@H](C)CC [VIR-577] (I: H-LEAIPMCIPPEFLFGKPFVF-OH / II: H-LEAIPMCIPPEFLFGKPFVF-OH; disulfide I:7-II:7)
- pIC50: 5.49

Compound: CC[C@H](C)[C@H](NC(=O)[C@H](CCCCN)NC(=O)[C@H](CCC(=O)O)NC(=O)[C@@H](N)CC(C)C)C(=O)N1CCC[C@H]1C(=O)N[C@@H](CSSC[C@H](NC(=O)[C@@H]1CCCN1C(=O)[C@@H](NC(=O)[C@H](CCCCN)NC(=O)[C@H](CCC(=O)O)NC(=O)[C@@H](N)CC(C)C)[C@@H](C)CC)C(=O)N[C@@H](CO)C(=O)N[C@H](C(=O)N1CCC[C@H]1C(=O)N1CCC[C@@H]1C(=O)N[C@@H](CCC(=O)O)C(=O)N[C@H](C(=O)N[C@@H](C)C(=O)N[C@@H](Cc1ccccc1)C(=O)N[C@@H](CC(N)=O)C(=O)N[C@@H](CCCCN)C(=O)N1CCC[C@H]1C(=O)N[C@@H](Cc1ccccc1)C(=O)N[C@H](C(=O)N[C@@H](Cc1ccccc1)C(=O)O)C(C)C)C(C)C)[C@@H](C)CC)C(=O)N[C@@H](CO)C(=O)N[C@H](C(=O)N1CCC[C@H]1C(=O)N1CCC[C@@H]1C(=O)N[C@@H](CCC(=O)O)C(=O)N[C@H](C(=O)N[C@@H](C)C(=O)N[C@@H](Cc1ccccc1)C(=O)N[C@@H](CC(N)=O)C(=O)N[C@@H](CCCCN)C(=O)N1CCC[C@H]1C(=O)N[C@@H](Cc1ccccc1)C(=O)N[C@H](C(=O)N[C@@H](Cc1ccccc1)C(=O)O)C(C)C)C(C)C)[C@@H](C)CC [VIR-705, (LEKIPCSIPpEVAFNKPFVF)2] (I: H-LEKIPCSIP[dP]EVAFNKPFVF-OH / II: H-LEKIPCSIP[dP]EVAFNKPFVF-OH; disulfide I:6-II:6)
- pIC50: 6.32

Compound: CC[C@H](C)[C@H](NC(=O)[C@H](C)NC(=O)[C@H](CCC(=O)O)NC(=O)[C@H](CC(C)C)NC)C(=O)N1CCC[C@H]1C(=O)N[C@@H](CSSC[C@H](NC(=O)[C@@H]1CCCN1C(=O)[C@@H](NC(=O)[C@H](C)NC(=O)[C@H](CCC(=O)O)NC(=O)[C@H](CC(C)C)NC)[C@@H](C)CC)C(=O)N[C@@H](CO)C(=O)N[C@H](C(=O)N1CCC[C@H]1C(=O)N1CCC[C@H]1C(=O)N[C@@H](CCC(=O)O)C(=O)N[C@@H](Cc1ccccc1)C(=O)N[C@@H](CC(C)C)C(=O)N[C@@H](Cc1ccccc1)C(=O)NCC(=O)N[C@@H](CCCCN)C(=O)N1CCC[C@H]1C(=O)N[C@@H](Cc1ccccc1)C(=O)N[C@H](C(=O)N[C@@H](Cc1ccccc1)C(=O)O)C(C)C)[C@@H](C)CC)C(=O)N[C@@H](CO)C(=O)N[C@H](C(=O)N1CCC[C@H]1C(=O)N1CCC[C@H]1C(=O)N[C@@H](CCC(=O)O)C(=O)N[C@@H](Cc1ccccc1)C(=O)N[C@@H](CC(C)C)C(=O)N[C@@H](Cc1ccccc1)C(=O)NCC(=O)N[C@@H](CCCCN)C(=O)N1CCC[C@H]1C(=O)N[C@@H](Cc1ccccc1)C(=O)N[C@H](C(=O)N[C@@H](Cc1ccccc1)C(=O)O)C(C)C)[C@@H](C)CC [VIR-712] (I: H-[NMeL]EAIPCSIPPEFLFGKPFVF-OH / II: H-[NMeL]EAIPCSIPPEFLFGKPFVF-OH; disulfide I:6-II:6; C-terminus assumed)
- pIC50: 6.71

Compound: I: H-LEAIPMSIPPEFLFGKPFVFKG-OH / II: H-LEAIPMSIPPEFLFGKPFVF (amide I:21-II:C) [VIR-574]
- pIC50: 5.51

Compound: CC[C@H](C)[C@H](NC(=O)[C@H](C)NC(=O)[C@H](CCC(=O)O)NC(=O)[C@@H](N)CC(C)C)C(=O)N1CCC[C@H]1C(=O)N[C@@H](CSSC[C@H](NC(=O)[C@@H]1CCCN1C(=O)[C@@H](NC(=O)[C@H](C)NC(=O)[C@H](CCC(=O)O)NC(=O)[C@@H](N)CC(C)C)[C@@H](C)CC)C(=O)NCC(=O)N[C@H](C(=O)N1CCC[C@H]1C(=O)N1CCC[C@@H]1C(=O)N[C@@H](CCC(=O)O)C(=O)N[C@H](C(=O)N1Cc2ccccc2C[C@@H]1C(=O)N[C@@H](Cc1ccccc1)C(=O)N[C@@H](CC(N)=O)C(=O)N[C@@H](CCCCN)C(=O)N1CCC[C@H]1C(=O)N[C@@H](Cc1ccccc1)C(=O)N[C@H](C(=O)N[C@@H](Cc1ccccc1)C(=O)O)C(C)C)C(C)C)[C@@H](C)CC)C(=O)NCC(=O)N[C@H](C(=O)N1CCC[C@H]1C(=O)N1CCC[C@@H]1C(=O)N[C@@H](CCC(=O)O)C(=O)N[C@H](C(=O)N1Cc2ccccc2C[C@@H]1C(=O)N[C@@H](Cc1ccccc1)C(=O)N[C@@H](CC(N)=O)C(=O)N[C@@H](CCCCN)C(=O)N1CCC[C@H]1C(=O)N[C@@H](Cc1ccccc1)C(=O)N[C@H](C(=O)N[C@@H](Cc1ccccc1)C(=O)O)C(C)C)C(C)C)[C@@H](C)CC [VIR-706, (LEAIPCGIPpEV(D-Tic)FNKPFVF)2] (I: H-LEAIPCGIP[dP]EV[dTic]FNKPFVF-OH / II: H-LEAIPCGIP[dP]EV[dTic]FNKPFVF-OH; disulfide I:6-II:6; N-terminus and C-terminus assumed)
- pIC50: 7.13
